The structures appear in SMILES notation. Where a SMILES comes first, the peptide text is derived from it. Bridges are numbered along the chain shown (N, C = ends). [ ]: non-standard residue; d: D form. The star is where a group is joined. Phe(4-COOH) = N[C@@H](Cc1ccc(C(=O)O)cc1)C(=O)O; Bip = N[C@@H](Cc1ccc(-c2ccccc2)cc1)C(=O)O; Phe(4-CN) = N#Cc1ccc(C[C@H](N)C(=O)O)cc1; Phe(4-NH2) = Nc1ccc(C[C@H](N)C(=O)O)cc1; Phe(3-Me) = Cc1cccc(C[C@H](N)C(=O)O)c1; Phe(2-F) = N[C@@H](Cc1ccccc1F)C(=O)O; His(π-Me) = Cn1cncc1C[C@H](N)C(=O)O; Val(3-OH) = CC(C)(O)[C@H](N)C(=O)O; 3Pal = N[C@@H](Cc1cccnc1)C(=O)O; 4Pal = N[C@@H](Cc1ccncc1)C(=O)O; 2Thi = N[C@@H](Cc1cccs1)C(=O)O; Aad = N[C@@H](CCCC(=O)O)C(=O)O; Cha = N[C@@H](CC1CCCCC1)C(=O)O; Carboxymethyl = O=C(O)C*; NMeA = CN[C@@H](C)C(=O)O; Aun = NCCCCCCCCCCC(=O)O; Dab = NCC[C@H](N)C(=O)O

For twelve compounds, IC50 results are on record in patent publication US20260070945A1, “MACROCYCLIC IMMUNOMODULATORS” (Bristol-Myers Squibb Company, priority 2022, published 2026).

T1 sequence (Q15116 25-288): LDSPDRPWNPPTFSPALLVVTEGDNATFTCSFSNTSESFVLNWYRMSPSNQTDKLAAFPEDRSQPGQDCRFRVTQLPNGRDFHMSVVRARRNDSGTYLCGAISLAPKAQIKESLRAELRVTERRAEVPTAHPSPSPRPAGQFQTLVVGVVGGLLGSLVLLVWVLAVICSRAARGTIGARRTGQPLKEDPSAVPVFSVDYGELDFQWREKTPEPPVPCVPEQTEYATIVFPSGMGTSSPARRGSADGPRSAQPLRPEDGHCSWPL

The assay concerns the target T1, PD-1/PD-L1 interaction (PE-labeled human PD-L1-Ig binding to Jurkat cell line over-expressing human PD-1) (Homo sapiens, UniProt Q15116).
T1 construct: expressed in transfected cells; host or cells: Jurkat
As to the kind of experiment: Jurkat-PD-1 Cell Binding High-Content Screening Assay (CBA). Conditions: Jurkat-hPD-1 cells, PE-labeled PD-L1-Ig 20 nM final; read-out: Jurkat HPD1 PDL1 IC50. The essentials: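 In this imaging assay, cells in 10% FCS medium see compound for 2 h at 37 °C and then labeled ligand at 20 nM final for 1 h. Paraformaldehyde fixation, Hoechst 33342 staining and dPBS washes precede image capture.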
For the compound `Cc1cccc(C[C@@H]2NC(=O)[C@H](CC(=O)O)NC(=O)[C@H](Cc3ccc(OCC(=O)O)cc3)NC(=O)[C@H](Cc3cccnc3)NC(=O)CSC[C@@H](C(=O)N[C@@H](CCN)C(=O)NCCCCCCCCCCC(=O)O)NC(=O)[C@H](CO)NC(=O)[C@H](C(C)C)NC(=O)[C@H](CC3CCCCC3)NC(=O)[C@H](CCN)NC(=O)[C@@H](CC(C)C)NC(=O)[C@H](C)N(C)C(=O)[C@H](Cc3ccc(O)cc3)NC(=O)[C@H](Cc3ccc(-c4ccccc4)cc3)NC(=O)[C@H](Cc3ccc(OCC(=O)O)cc3)NC2=O)c1` [Example 1278] ({CH2CO}-[3Pal]Y(Carboxymethyl)D[Phe(3-Me)]Y(Carboxymethyl)[Bip]Y[NMeA][dL][Dab][Cha]VSC[Dab][Aun]-OH; thioether N-14), the IC50 (commonly the concentration that inhibits the measured activity by half) came to 33.4 nM. Consider `Cc1cccc(C[C@@H]2NC(=O)[C@H](CC(=O)O)NC(=O)[C@H](Cc3ccc(OCC(=O)O)cc3)NC(=O)[C@H](Cc3ccc(N)cc3)NC(=O)CSC[C@@H](C(=O)N[C@@H](CCN)C(=O)NCCCCCCCCCCC(=O)O)NC(=O)[C@H](CO)NC(=O)[C@H](C(C)C)NC(=O)[C@H](CC3CCCCC3)NC(=O)[C@H](CCN)NC(=O)[C@@H](CC(C)C)NC(=O)[C@H](C)N(C)C(=O)[C@H](Cc3ccc(O)cc3)NC(=O)[C@H](Cc3ccc(-c4ccccc4)cc3)NC(=O)[C@H](Cc3ccc(OCC(=O)O)cc3)NC2=O)c1` [Example 1279] ({CH2CO}-[Phe(4-NH2)]Y(Carboxymethyl)D[Phe(3-Me)]Y(Carboxymethyl)[Bip]Y[NMeA][dL][Dab][Cha]VSC[Dab][Aun]-OH; thioether N-14), for which the IC50 stood at 39.3 nM.

Take `Cc1cccc(C[C@@H]2NC(=O)[C@H](CC(=O)O)NC(=O)[C@H](Cc3ccc(OCC(=O)O)cc3)NC(=O)[C@H](CCCC(=O)O)NC(=O)CSC[C@@H](C(=O)N[C@@H](CCN)C(=O)NCCCCCCCCCCC(=O)O)NC(=O)[C@H](CO)NC(=O)[C@H](C(C)C)NC(=O)[C@H](CC3CCCCC3)NC(=O)[C@H](CCN)NC(=O)[C@@H](CC(C)C)NC(=O)[C@H](C)N(C)C(=O)[C@H](Cc3ccc(O)cc3)NC(=O)[C@H](Cc3ccc(-c4ccccc4)cc3)NC(=O)[C@H](Cc3ccc(OCC(=O)O)cc3)NC2=O)c1` [Example 1280] ({CH2CO}-[Aad]Y(Carboxymethyl)D[Phe(3-Me)]Y(Carboxymethyl)[Bip]Y[NMeA][dL][Dab][Cha]VSC[Dab][Aun]-OH; thioether N-14): the IC50 was determined as 29.3 nM. For the compound `Cc1cccc(C[C@@H]2NC(=O)[C@H](CC(=O)O)NC(=O)[C@H](Cc3ccc(OCC(=O)O)cc3)NC(=O)[C@H](Cc3cncn3C)NC(=O)CSC[C@@H](C(=O)N[C@@H](CCN)C(=O)NCCCCCCCCCCC(=O)O)NC(=O)[C@H](CO)NC(=O)[C@H](C(C)C)NC(=O)[C@H](CC3CCCCC3)NC(=O)[C@H](CCN)NC(=O)[C@@H](CC(C)C)NC(=O)[C@H](C)N(C)C(=O)[C@H](Cc3ccc(O)cc3)NC(=O)[C@H](Cc3ccc(-c4ccccc4)cc3)NC(=O)[C@H](Cc3ccc(OCC(=O)O)cc3)NC2=O)c1` [Example 1281] ({CH2CO}-[His(π-Me)]Y(Carboxymethyl)D[Phe(3-Me)]Y(Carboxymethyl)[Bip]Y[NMeA][dL][Dab][Cha]VSC[Dab][Aun]-OH; thioether N-14), the half-inhibitory concentration (IC50) amounted to 22.1 nM. On to `Cc1cccc(C[C@@H]2NC(=O)[C@H](CC(=O)O)NC(=O)[C@H](Cc3ccc(C(=O)O)cc3)NC(=O)[C@H](Cc3ccncc3)NC(=O)CSC[C@@H](C(=O)N[C@@H](CCN)C(=O)NCCCCCCCCCCC(=O)O)NC(=O)[C@H](CO)NC(=O)[C@H](C(C)(C)O)NC(=O)[C@H](CC3CCCCC3)NC(=O)[C@H](CCN)NC(=O)[C@@H](CC(C)C)NC(=O)[C@H](C)N(C)C(=O)[C@H](Cc3ccc(OCC(=O)O)cc3)NC(=O)[C@H](Cc3ccc(-c4ccccc4)cc3)NC(=O)[C@H](Cc3ccc(OCC(=O)O)cc3)NC2=O)c1` [Example 1282] ({CH2CO}-[4Pal][Phe(4-COOH)]D[Phe(3-Me)]Y(Carboxymethyl)[Bip]Y(Carboxymethyl)[NMeA][dL][Dab][Cha][Val(3-OH)]SC[Dab][Aun]-OH; thioether N-14), for which the half-maximal inhibitory concentration (IC50) was determined as 7.2 nM.

For `Cc1cccc(C[C@@H]2NC(=O)[C@H](CC(=O)O)NC(=O)[C@H](Cc3ccc(C(=O)O)cc3)NC(=O)[C@H](Cc3cccnc3)NC(=O)CSC[C@@H](C(=O)N[C@@H](CCN)C(=O)NCCCCCCCCCCC(=O)O)NC(=O)[C@H](CO)NC(=O)[C@H](C(C)(C)O)NC(=O)[C@H](CC3CCCCC3)NC(=O)[C@H](CCN)NC(=O)[C@@H](CC(C)C)NC(=O)[C@H](C)N(C)C(=O)[C@H](Cc3ccc(OCC(=O)O)cc3)NC(=O)[C@H](Cc3ccc(-c4ccccc4)cc3)NC(=O)[C@H](Cc3ccc(OCC(=O)O)cc3)NC2=O)c1` [Example 1283] ({CH2CO}-[3Pal][Phe(4-COOH)]D[Phe(3-Me)]Y(Carboxymethyl)[Bip]Y(Carboxymethyl)[NMeA][dL][Dab][Cha][Val(3-OH)]SC[Dab][Aun]-OH; thioether N-14), the IC50 is 15.9 nM.

Turning to `Cc1cccc(C[C@@H]2NC(=O)[C@H](CC(=O)O)NC(=O)[C@H](Cc3ccc(C(=O)O)cc3)NC(=O)[C@H](Cc3cccs3)NC(=O)CSC[C@@H](C(=O)N[C@@H](CCN)C(=O)NCCCCCCCCCCC(=O)O)NC(=O)[C@H](CO)NC(=O)[C@H](C(C)(C)O)NC(=O)[C@H](CC3CCCCC3)NC(=O)[C@H](CCN)NC(=O)[C@@H](CC(C)C)NC(=O)[C@H](C)N(C)C(=O)[C@H](Cc3ccc(OCC(=O)O)cc3)NC(=O)[C@H](Cc3ccc(-c4ccccc4)cc3)NC(=O)[C@H](Cc3ccc(OCC(=O)O)cc3)NC2=O)c1` [Example 1284] ({CH2CO}-[2Thi][Phe(4-COOH)]D[Phe(3-Me)]Y(Carboxymethyl)[Bip]Y(Carboxymethyl)[NMeA][dL][Dab][Cha][Val(3-OH)]SC[Dab][Aun]-OH; thioether N-14), the IC50 turned out to be 16.9 nM. The result for `Cc1cccc(C[C@@H]2NC(=O)[C@H](CC(=O)O)NC(=O)[C@H](Cc3ccc(OCC(=O)O)cc3)NC(=O)[C@H](Cc3cccs3)NC(=O)CSC[C@@H](C(=O)N[C@@H](CCN)C(=O)NCCCCCCCCCCC(=O)O)NC(=O)[C@H](CO)NC(=O)[C@H](C(C)(C)O)NC(=O)[C@H](CC3CCCCC3)NC(=O)[C@H](CCN)NC(=O)[C@@H](CC(C)C)NC(=O)[C@H](C)N(C)C(=O)[C@H](Cc3ccc(OCC(=O)O)cc3)NC(=O)[C@H](Cc3ccc(-c4ccccc4)cc3)NC(=O)[C@H](Cc3ccc(OCC(=O)O)cc3)NC2=O)c1` [Example 1285] ({CH2CO}-[2Thi]Y(Carboxymethyl)D[Phe(3-Me)]Y(Carboxymethyl)[Bip]Y(Carboxymethyl)[NMeA][dL][Dab][Cha][Val(3-OH)]SC[Dab][Aun]-OH; thioether N-14) reads 29.2 nM; that for `COc1ccc(C[C@@H]2NC(=O)CSC[C@@H](C(=O)N[C@@H](CCN)C(=O)NCCCCCCCCCCC(=O)O)NC(=O)[C@H](CO)NC(=O)[C@H](C(C)(C)O)NC(=O)[C@H](CC3CCCCC3)NC(=O)[C@H](CCN)NC(=O)[C@@H](CC(C)C)NC(=O)[C@H](C)N(C)C(=O)[C@H](Cc3ccc(OCC(=O)O)cc3)NC(=O)[C@H](Cc3ccc(-c4ccccc4)cc3)NC(=O)[C@H](Cc3ccc(OCC(=O)O)cc3)NC(=O)[C@H](Cc3cccc(C)c3)NC(=O)[C@H](CC(=O)O)NC(=O)[C@H](Cc3ccc(OCC(=O)O)cc3)NC2=O)cc1` [Example 1286] ({CH2CO}-Y(Me)Y(Carboxymethyl)D[Phe(3-Me)]Y(Carboxymethyl)[Bip]Y(Carboxymethyl)[NMeA][dL][Dab][Cha][Val(3-OH)]SC[Dab][Aun]-OH; thioether N-14), 19.2 nM. The result for `Cc1cccc(C[C@@H]2NC(=O)[C@H](CC(=O)O)NC(=O)[C@H](Cc3ccc(OCC(=O)O)cc3)NC(=O)[C@H](Cc3ccncc3)NC(=O)CSC[C@@H](C(=O)N[C@@H](CCN)C(=O)NCCCCCCCCCCC(=O)O)NC(=O)[C@H](CO)NC(=O)[C@H](C(C)(C)O)NC(=O)[C@H](CC3CCCCC3)NC(=O)[C@H](CCN)NC(=O)[C@@H](CC(C)C)NC(=O)[C@H](C)N(C)C(=O)[C@H](Cc3ccc(OCC(=O)O)cc3)NC(=O)[C@H](Cc3ccc(-c4ccccc4)cc3)NC(=O)[C@H](Cc3ccc(OCC(=O)O)cc3)NC2=O)c1` [Example 1287] ({CH2CO}-[4Pal]Y(Carboxymethyl)D[Phe(3-Me)]Y(Carboxymethyl)[Bip]Y(Carboxymethyl)[NMeA][dL][Dab][Cha][Val(3-OH)]SC[Dab][Aun]-OH; thioether N-14) reads 9 nM; that for `Cc1cccc(C[C@@H]2NC(=O)[C@H](CC(=O)O)NC(=O)[C@H](Cc3ccc(OCC(=O)O)cc3)NC(=O)[C@H](Cc3ccc(C#N)cc3)NC(=O)CSC[C@@H](C(=O)N[C@@H](CCN)C(=O)NCCCCCCCCCCC(=O)O)NC(=O)[C@H](CO)NC(=O)[C@H](C(C)(C)O)NC(=O)[C@H](CC3CCCCC3)NC(=O)[C@H](CCN)NC(=O)[C@@H](CC(C)C)NC(=O)[C@H](C)N(C)C(=O)[C@H](Cc3ccc(OCC(=O)O)cc3)NC(=O)[C@H](Cc3ccc(-c4ccccc4)cc3)NC(=O)[C@H](Cc3ccc(OCC(=O)O)cc3)NC2=O)c1` [Example 1288] ({CH2CO}-[Phe(4-CN)]Y(Carboxymethyl)D[Phe(3-Me)]Y(Carboxymethyl)[Bip]Y(Carboxymethyl)[NMeA][dL][Dab][Cha][Val(3-OH)]SC[Dab][Aun]-OH; thioether N-14), 14.7 nM; that for `Cc1cccc(C[C@@H]2NC(=O)[C@H](CC(=O)O)NC(=O)[C@H](Cc3ccc(C(=O)O)cc3)NC(=O)[C@H](CCN)NC(=O)CSC[C@@H](C(=O)N[C@@H](CCN)C(=O)NCCCCCCCCCCC(=O)O)NC(=O)[C@H](CO)NC(=O)[C@H](C(C)(C)O)NC(=O)[C@H](CC3CCCCC3)NC(=O)[C@H](CCN)NC(=O)[C@@H](CC(C)C)NC(=O)[C@H](C)N(C)C(=O)[C@H](Cc3ccc(OCC(=O)O)cc3)NC(=O)[C@H](Cc3ccc(-c4ccccc4)cc3)NC(=O)[C@H](Cc3ccccc3F)NC2=O)c1` [Example 1289] ({CH2CO}-[Dab][Phe(4-COOH)]D[Phe(3-Me)][Phe(2-F)][Bip]Y(Carboxymethyl)[NMeA][dL][Dab][Cha][Val(3-OH)]SC[Dab][Aun]-OH; thioether N-14), 32.4 nM.
